Molecules are shown by their SMILES. Values after ≈ are worked out from the molar mass of the structure shown. Read-outs that look alike come from different tables or passages of the source.

In assay [1] the test system is 20 Serratia marcescens carrying β-lactamase. Kind of assay: In vitro activity against 20 Serratia marcescens carrying β-lactamase, compared with Temocillin. The assay is classed as cell-based. The note with it: Serr. marc. (20). How it is done: (§1) For the tests, the method of the series dilution test in the microtiter system was used. The substances were tested for bacteriostasis in a liquid medium. The bacteriostatic activity was tested at the following concentration: 128; 64; 32; 16; 8; 4; 2; 1; 0.5; 0.25; 0.12; 0.06 μg/ml.
(§2) A nutrient medium having the following composition was used: 10 gm of peptone, 8 gm of meat extract oxoid, 3 gm of sodium chloride, 2 gm of sec. sodium phosphate are made up to […] with distilled water (pH 7.2 to 7.4). The age of the primary cultures was about 20 hours.
(§3) The bacterial suspension was adjusted, using the photometer (according to "Eppendorf") (test tube diameter 14 mm, filter 546 nm) by reference to the turbidity of a barium sulfate comparison suspension which was produced by a barium sulfate suspension formed by the addition of 3.0 ml of 1% barium chloride solution to 97 ml of 1% sulfuric acid. After adjustment, Streptococcus aronson was diluted in the ratio 1:15 and the other test pathogens were diluted in the ratio 1:1500 with a common salt solution.
(§4) 16 mg of the test substance were weighed in 10 ml measuring flasks and solvent was added up to the mark. Further dilutions in the series were made with distilled water or the solvent in question.
(§5) The depressions in the microtiter plates were filled with 0.2 ml of nutrient medium, 0.01 ml of the corresponding diluted substance and a drop of bacterial suspension (0.01 ml), and incubated for 18 to 20 hours at 37° C. A solvent check was carried out continuously at the same time.
(§6) The reading was taken macroscopically, and the respective limiting concentration (=the lower concentration still having bateriostatic activity) was determined.

Assay [2] deals with Enterobacter cloacae ATCC 13 047. Kind of assay: In vitro MIC, series dilution test in microtiter system. The assay is classed as cell-based. Particulars: Eb. cloac. ATCC 13047, 18 to 20 hours at 37° C., read-out: minimum inhibitory concentration (MIC). How it is done:
as §1, §2, §3, §4, §5, §6
(§7) The following were used as test organisms:
(§8) Escherichia coli ATCC 11 775, Serratia marcescens ATCC 13 880, Klebsiella pneumoniae ATCC 10 031 and BC 6, Proteus Mirabilis BC 17, Proteus rettgeri BC 7, Enterobacter cloacae ATCC 13 047, E. coli R^+ TEM(β-lactamase carrier) and K. pneumoniae 1088 E (β-lactamase carrier).
(§9) Table 1 which follows lists the minimum inhibitory concentrations (MIC) determined for typical representatives of the compounds according to the invention. These are the sodium salts of compounds of the formula I, where A=p-hydroxyphenyl and R is defined as follows: […]

In assay [3] the test system is Escherichia coli ATCC 11 775. The description is as above. The assay is classed as cell-based. Particulars: E. coli ATCC 11775, 18 to 20 hours at 37° C., read-out: minimum inhibitory concentration (MIC). How it is done:
as §1, §2, §3, §4, §5, §6, §7, §8, §9

The subject of assay [4] is Klebsiella pneumoniae ATCC 10 031. The assay is described as above. The assay is classed as cell-based. Particulars: K. pneum. ATCC 10031, 18 to 20 hours at 37° C., read-out: minimum inhibitory concentration (MIC). How it is done: as §1, §2, §3, §4, §5, §6, §7, §8, §9
Assay [5] deals with Proteus Mirabilis BC 17. The description is as above. The format is cell-based. Particulars: Prot. mir. BC 17, 18 to 20 hours at 37° C., read-out: minimum inhibitory concentration (MIC). How it is done:
as §1, §2, §3, §4, §5, §6, §7, §8, §9

In assay [6] the test system is Serratia marcescens ATCC 13 880. The description is as above. The format is cell-based. The note with it: Serr. marc. ATCC 13880, 18 to 20 hours at 37° C., read-out: minimum inhibitory concentration (MIC). How it is done:
as §1, §2, §3, §4, §5, §6, §7, §8, §9

Assay [7] has as its system Klebsiella pneumoniae BC 6. The assay is described as above. Particulars: BC6, K. pneum. BC 6, 18 to 20 hours at 37° C., read-out: minimum inhibitory concentration (MIC). The assay is classed as cell-based. How it is done:
as §1, §2, §3, §4, §5, §6, §7, §8, §9

For assay [8], the system named is Proteus rettgeri BC 7. The description is as above. The format is cell-based. Particulars: Providencia rettgeri, BC7; Prot. rettg. BC 7; 18 to 20 hours at 37° C.; read-out: minimum inhibitory concentration (MIC). How it is done: as §1, §2, §3, §4, §5, §6, §7, §8, §9
Assay [9] concerns E. coli R^+ TEM(β-lactamase carrier). Described as above. The assay is classed as cell-based. Particulars: Escherichia coli, read-out: minimum inhibitory concentration (MIC). How it is done:
as §1, §2, §3, §4, §5, §6, §7, §8, §9

Assay [10] has as its system K. pneumoniae 1088 E (β-lactamase carrier). Described as above. Particulars: Klebsiella pneumoniae, K. pneum. 1088 E, 18 to 20 hours at 37° C., read-out: minimum inhibitory concentration (MIC). The assay is classed as cell-based. How it is done:
as §1, §2, §3, §4, §5, §6, §7, §8, §9

The subject of assay [11] is E. coli ATCC 11775. Kind of assay: In vivo test on experimental E. coli infection in mice. Also on record: species or system E. coli; female mice of the NMRI strain. The note with it: Escherichia coli, ATCC11775, sc, 168 h, subcutaneous, one treatment 1 hour post infectionem, observation period 7 days, read-out: ED50 (dose at which 50% of the animals survived). How it is done: A number of the compounds according to the invention were tested in vivo on experimental infections in mice. E. coli ATCC 11775 were used as the pathogenic bacteria. An intraperitoneal infection was produced with 0.2 ml of a 5% mucin suspension of the bacteria. This corresponds to about 1.4×10^6 E. coli bacteria per mouse. Female mice of the NMRI strain were divided up into groups of 10 animals, two groups were untreated, the other groups were treated subcutaneously with various doses of the penicillin according to the invention, to determine the ED50 (dose at which 50% of the animals survived). One treatment was given (1 hour post infectionem).
In both cases, the observation period was 7 days. The results of these tests with 2 representatives of the penicillins according to the invention, compared with Temocillin, are shown in Table 3 which follows: […]

[12] abbreviates: inoculum 5 × 10^4, read-out: Geometric Mean (MIC).
Setting [13] is: inoculum 5 × 10^4, read-out: MIC Range.
The mark [14] stands for this setting: inoculum 5 × 10^6, read-out: Geometric Mean (MIC).

For `CO[C@@]1(NC(=O)C(NC(=O)Nc2cnc(Nc3ccc(S(N)(=O)=O)cc3)nc2O)c2ccc(O)cc2)C(=O)N2[C@@H](C(=O)O)C(C)(C)S[C@@H]21` (stereo partly drawn) [A], the MIC in assay [1] (setting [12]) is 2.8 µg/mL (≈ 3.98 µM); in assay [1] (setting [13]), 2 to 8 µg/mL (≈ 2.85 to 11.4 µM); in [1] (setting [14]), 10.2 µg/mL (≈ 14.5 µM); in [1] (inoculum 5 × 10^6, read-out: MIC Range) it was 4 to 32 µg/mL (≈ 5.69 to 45.5 µM); in assay [2] it was 1 µg/mL (≈ 1.42 µM); in assay [3] it was 1 µg/mL (≈ 1.42 µM). Moreover, the MIC in assay [4] amounted to 1 µg/mL (≈ 1.42 µM); in [5], 1 µg/mL (≈ 1.42 µM); in assay [6], 1 µg/mL (≈ 1.42 µM); in [7], 1 µg/mL (≈ 1.42 µM); in assay [8], 2 µg/mL (≈ 2.85 µM); in [9] it was 1 µg/mL (≈ 1.42 µM). The MIC in [10] stood at 4 µg/mL (≈ 5.69 µM). Moreover, the 50% effective dose (ED50) in assay [11] was 4 mg/kg.
Regarding `CO[C@@]1(NC(=O)C(NC(=O)Nc2cnc(NCc3ccc(S(N)(=O)=O)s3)nc2O)c2ccc(O)cc2)C(=O)N2[C@@H](C(=O)O)C(C)(C)S[C@@H]21` (stereo partly drawn) [C], the MIC in assay [2] amounted to 1 µg/mL (≈ 1.38 µM); in [3], 1 µg/mL (≈ 1.38 µM); in assay [4], 1 µg/mL (≈ 1.38 µM); in assay [5], 0.12 µg/mL (≈ 0.166 µM); in [6], 2 µg/mL (≈ 2.77 µM); in assay [7] it was 1 µg/mL (≈ 1.38 µM). The values for the MIC in [8], in assay [9] and in assay [10] were 2 µg/mL (≈ 2.77 µM), 2 µg/mL (≈ 2.77 µM) and 8 µg/mL (≈ 11.1 µM), respectively.
For `CO[C@@]1(NC(=O)C(C(=O)O)c2ccsc2)C(=O)N2[C@@H](C(=O)O)C(C)(C)S[C@@H]21` (stereo partly drawn) [Compound E, Temocillin, reference compound], the MIC is 10.2 µg/mL (≈ 24.6 µM) in assay [1] (setting [12]); 8 to 16 µg/mL (≈ 19.3 to 38.6 µM) in assay [1] (setting [13]); 24.3 µg/mL (≈ 58.6 µM) in assay [1] (setting [14]); 4 µg/mL (≈ 9.65 µM) in assay [2]; 4 µg/mL (≈ 9.65 µM) in assay [3]; 4 µg/mL (≈ 9.65 µM) in assay [4]. Further, the MIC in assay [5] stood at 2 µg/mL (≈ 4.83 µM); in assay [6], 8 µg/mL (≈ 19.3 µM); in assay [7] it was 2 µg/mL (≈ 4.83 µM); in assay [8] it was 4 µg/mL (≈ 9.65 µM); in [9] it was 8 µg/mL (≈ 19.3 µM); in assay [10], 4 µg/mL (≈ 9.65 µM). The median effective dose (ED50) in assay [11] was over 20 mg/kg.
For `CO[C@@]1(NC(=O)C(NC(=O)Nc2cnc(NCc3ccc(S(N)(=O)=O)cc3)nc2O)c2ccc(O)cc2)C(=O)N2[C@@H](C(=O)O)C(C)(C)S[C@@H]21` (stereo partly drawn) [D], the MIC stood at 1 µg/mL (≈ 1.4 µM) in [2]; 2 µg/mL (≈ 2.79 µM) in assay [3]; 1 µg/mL (≈ 1.4 µM) in [4]; 0.5 µg/mL (≈ 0.698 µM) in assay [5]; 2 µg/mL (≈ 2.79 µM) in [6]; 1 µg/mL (≈ 1.4 µM) in assay [7]. The MIC in assay [8] worked out at 4 µg/mL (≈ 5.58 µM); in assay [9] it was 2 µg/mL (≈ 2.79 µM); in assay [10] it was 8 µg/mL (≈ 11.2 µM).

The values above are taken from patent US4454128A, “6α-Methoxy-penicillins” (Dr. Karl Thomae GmbH, priority 1981, dated 1984).
